Activity calls are given as the source filed them.
Columns and labels:
[1] = target: T1, Short transient receptor potential channel 4 (Mus musculus, UniProt Q9QUQ5); assay: calcium entry via TRPC4 opening agents – cell-based, HEK293 TRPC4/mu-opioid, Fluo-4 calcium, dose response (AID 434937); assay type: functional
T1 sequence (Q9QUQ5 whole entry): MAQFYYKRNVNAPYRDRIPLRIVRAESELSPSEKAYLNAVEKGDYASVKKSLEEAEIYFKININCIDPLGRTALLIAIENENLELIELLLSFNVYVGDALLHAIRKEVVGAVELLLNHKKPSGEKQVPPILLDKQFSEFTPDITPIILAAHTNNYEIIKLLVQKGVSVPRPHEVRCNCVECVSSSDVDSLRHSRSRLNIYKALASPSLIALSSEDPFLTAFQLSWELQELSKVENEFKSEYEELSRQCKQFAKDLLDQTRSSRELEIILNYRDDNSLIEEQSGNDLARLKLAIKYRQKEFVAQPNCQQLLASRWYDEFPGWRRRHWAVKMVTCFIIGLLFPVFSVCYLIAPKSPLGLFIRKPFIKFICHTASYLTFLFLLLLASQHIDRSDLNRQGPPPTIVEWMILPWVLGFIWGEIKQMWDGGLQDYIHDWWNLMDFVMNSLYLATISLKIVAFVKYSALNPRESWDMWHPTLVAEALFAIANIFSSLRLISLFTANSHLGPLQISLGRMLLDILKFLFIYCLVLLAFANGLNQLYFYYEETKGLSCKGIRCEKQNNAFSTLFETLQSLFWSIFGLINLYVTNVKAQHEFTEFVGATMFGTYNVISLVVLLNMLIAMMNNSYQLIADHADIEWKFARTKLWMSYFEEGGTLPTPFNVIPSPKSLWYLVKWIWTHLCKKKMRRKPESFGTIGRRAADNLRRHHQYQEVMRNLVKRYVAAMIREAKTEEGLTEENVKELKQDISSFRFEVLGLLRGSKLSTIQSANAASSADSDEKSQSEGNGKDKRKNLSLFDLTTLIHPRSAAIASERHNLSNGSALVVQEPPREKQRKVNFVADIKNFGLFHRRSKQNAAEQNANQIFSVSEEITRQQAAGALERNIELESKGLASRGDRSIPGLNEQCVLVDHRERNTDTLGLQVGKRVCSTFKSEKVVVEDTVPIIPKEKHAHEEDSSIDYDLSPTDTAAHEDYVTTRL

[2] = tested on: Streptococcus sp. 'group A'; assay: Streptococcus pyogenes SK(-)GAS viability under kanamycin – luminescence, BacTiterGlo, confirmation, counter-screen for streptokinase expression inhibitor project, dose response (AID 1900); assay type: functional, organism-based
Streptococcus = assay: GAS UMAA2166 growth inhibition – luminescence, BacTiterGlo, counter-screen for streptokinase expression inhibitor project, dose response (AID 1915); assay type: functional, organism-based;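 note: potency for reduction of bacterial viability or growth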
Streptokinase A = target: T2, Streptokinase A (Streptococcus pyogenes serotype M1, UniProt P10520); assay: viability-normalized secreted streptokinase activity reduction – plasminogen activation absorbance, OD405, dose response (AID 1914); assay type: functional, Streptococcus pyogenes M1 GAS;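 note: secreted streptokinase activity via plasminogen activation per viability signal from cell pellet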
T2 sequence (P10520 whole entry): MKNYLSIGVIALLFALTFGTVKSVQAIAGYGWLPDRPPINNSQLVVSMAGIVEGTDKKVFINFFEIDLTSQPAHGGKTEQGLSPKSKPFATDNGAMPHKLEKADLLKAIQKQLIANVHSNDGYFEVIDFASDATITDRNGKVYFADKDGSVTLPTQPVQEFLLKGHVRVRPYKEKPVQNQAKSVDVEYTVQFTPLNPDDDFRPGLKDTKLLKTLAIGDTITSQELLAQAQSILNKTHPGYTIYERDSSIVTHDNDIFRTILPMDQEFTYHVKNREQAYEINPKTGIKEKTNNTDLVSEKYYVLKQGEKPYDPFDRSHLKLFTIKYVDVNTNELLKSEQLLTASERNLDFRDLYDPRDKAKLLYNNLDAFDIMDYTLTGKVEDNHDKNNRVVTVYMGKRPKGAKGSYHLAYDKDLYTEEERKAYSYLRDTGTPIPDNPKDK

HEK293 [3] = assay: cells; assay type: functional, cell-based; details: Homo sapiens
HEK293 [4] = assay: inhibition of NOD1-driven NF-kB reporter – cell-based, luminescence, uHTS, primary screen (AID 1578); assay type: functional; details: Homo sapiens
HEK293 [5] = assay: NOD2 signaling inhibitors in MDP-stimulated cells, cell-based, uHTS, luminescence (AID 2001); assay type: functional; details: Homo sapiens
HEK293 [6] = assay: cells; assay type: functional, cell-based; details: Homo sapiens; remark: listed apart in the source
[7] = target: T3, Corticotropin-releasing factor receptor 2/Corticotropin-releasing factor-binding protein (Homo sapiens, UniProt P24387+Q13324); assay: activators of CRF receptor 2 with binding protein – uHTS hits, confirmation (AID 602473); assay type: functional; details: read-out: EC50_Mean
T3 sequence (Q13324 whole entry): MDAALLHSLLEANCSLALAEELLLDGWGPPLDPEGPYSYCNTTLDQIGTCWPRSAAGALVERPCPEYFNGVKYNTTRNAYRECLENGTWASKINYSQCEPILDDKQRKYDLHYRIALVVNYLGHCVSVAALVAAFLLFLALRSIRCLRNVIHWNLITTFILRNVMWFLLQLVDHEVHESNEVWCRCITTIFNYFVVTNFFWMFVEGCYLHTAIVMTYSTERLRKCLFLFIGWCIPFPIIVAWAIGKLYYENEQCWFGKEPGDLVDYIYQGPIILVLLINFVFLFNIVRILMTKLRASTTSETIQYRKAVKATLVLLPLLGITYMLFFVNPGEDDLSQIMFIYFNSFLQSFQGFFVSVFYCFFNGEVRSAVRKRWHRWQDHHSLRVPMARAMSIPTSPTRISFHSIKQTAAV
T3 sequence (P24387 whole entry): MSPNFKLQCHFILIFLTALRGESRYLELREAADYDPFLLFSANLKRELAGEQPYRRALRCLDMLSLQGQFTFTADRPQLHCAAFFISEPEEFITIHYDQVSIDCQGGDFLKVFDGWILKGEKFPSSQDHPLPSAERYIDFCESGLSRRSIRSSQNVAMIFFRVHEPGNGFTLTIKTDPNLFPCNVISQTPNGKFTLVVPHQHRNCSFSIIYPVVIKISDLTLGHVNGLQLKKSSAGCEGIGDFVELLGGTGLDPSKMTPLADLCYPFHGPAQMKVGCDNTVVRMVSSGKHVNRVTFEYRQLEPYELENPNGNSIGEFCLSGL

[8] = target: T4, Sentrin-specific protease 8 (Homo sapiens, UniProt Q96LD8); assay type: functional;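 note: luminescence read-out of SENP8 inhibition, dose-response confirmation following an ultra-high-throughput screen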
T4 sequence (Q96LD8 whole entry): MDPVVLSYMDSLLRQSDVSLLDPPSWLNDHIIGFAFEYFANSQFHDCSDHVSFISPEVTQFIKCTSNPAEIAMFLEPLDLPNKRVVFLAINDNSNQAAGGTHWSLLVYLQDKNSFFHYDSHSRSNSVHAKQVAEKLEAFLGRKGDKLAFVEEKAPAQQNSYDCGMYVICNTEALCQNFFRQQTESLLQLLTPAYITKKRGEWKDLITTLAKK

Caspase-3 = target: T5, Caspase-3 (Homo sapiens, UniProt P42574); assay type: functional;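 note: Dose-response selectivity test against caspase-3 for candidate inhibitors of sentrin-specific proteases (SENPs)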
T5 sequence (P42574 whole entry): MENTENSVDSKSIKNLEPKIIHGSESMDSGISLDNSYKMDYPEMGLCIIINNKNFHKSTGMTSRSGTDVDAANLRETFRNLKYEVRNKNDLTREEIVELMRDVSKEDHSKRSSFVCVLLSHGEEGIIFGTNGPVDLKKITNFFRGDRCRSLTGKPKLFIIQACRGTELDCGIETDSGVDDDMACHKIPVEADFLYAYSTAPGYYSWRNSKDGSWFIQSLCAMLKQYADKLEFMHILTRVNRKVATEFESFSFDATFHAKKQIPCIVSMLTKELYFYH

[9] = target: T6, Sentrin-specific protease 6 (Homo sapiens, UniProt Q9GZR1); assay type: functional;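 note: Luminescence-based dose-response confirmatory assay of SENP6 inhibition, following up an ultra-high-throughput screen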
T6 sequence (Q9GZR1 whole entry): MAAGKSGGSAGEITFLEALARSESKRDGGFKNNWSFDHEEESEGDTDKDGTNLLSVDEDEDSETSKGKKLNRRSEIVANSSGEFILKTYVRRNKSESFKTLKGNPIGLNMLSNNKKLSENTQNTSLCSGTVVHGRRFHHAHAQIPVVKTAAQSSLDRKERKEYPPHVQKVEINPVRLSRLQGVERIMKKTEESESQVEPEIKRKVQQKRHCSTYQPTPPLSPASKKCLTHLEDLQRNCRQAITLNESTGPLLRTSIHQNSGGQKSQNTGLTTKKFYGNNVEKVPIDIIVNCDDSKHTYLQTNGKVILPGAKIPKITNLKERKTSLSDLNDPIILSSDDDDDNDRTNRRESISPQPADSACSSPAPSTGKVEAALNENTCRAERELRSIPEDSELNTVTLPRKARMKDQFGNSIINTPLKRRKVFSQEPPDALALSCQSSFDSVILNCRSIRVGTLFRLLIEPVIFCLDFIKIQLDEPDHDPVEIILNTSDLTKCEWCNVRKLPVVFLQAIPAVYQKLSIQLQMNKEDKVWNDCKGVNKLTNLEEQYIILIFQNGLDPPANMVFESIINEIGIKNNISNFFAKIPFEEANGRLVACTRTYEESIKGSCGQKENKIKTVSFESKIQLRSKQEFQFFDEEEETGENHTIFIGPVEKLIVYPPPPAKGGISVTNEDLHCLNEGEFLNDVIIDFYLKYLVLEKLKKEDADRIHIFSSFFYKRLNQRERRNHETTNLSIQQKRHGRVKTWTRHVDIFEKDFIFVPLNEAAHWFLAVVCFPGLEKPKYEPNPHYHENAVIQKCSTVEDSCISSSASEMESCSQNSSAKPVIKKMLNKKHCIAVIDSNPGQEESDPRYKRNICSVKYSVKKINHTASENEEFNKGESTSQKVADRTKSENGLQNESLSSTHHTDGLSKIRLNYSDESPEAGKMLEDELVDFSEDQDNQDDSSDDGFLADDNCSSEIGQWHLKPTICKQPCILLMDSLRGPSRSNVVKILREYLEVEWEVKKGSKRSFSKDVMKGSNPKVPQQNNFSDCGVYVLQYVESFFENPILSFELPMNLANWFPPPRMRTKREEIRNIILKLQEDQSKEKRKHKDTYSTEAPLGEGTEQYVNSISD

[10] = target: T7, Sentrin-specific protease 7 (Homo sapiens, UniProt Q9BQF6); assay type: functional;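 note: Luminescence-based dose-response confirmation of ultra-high-throughput screening hits, measuring inhibition of SENP7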
T7 sequence (Q9BQF6 whole entry): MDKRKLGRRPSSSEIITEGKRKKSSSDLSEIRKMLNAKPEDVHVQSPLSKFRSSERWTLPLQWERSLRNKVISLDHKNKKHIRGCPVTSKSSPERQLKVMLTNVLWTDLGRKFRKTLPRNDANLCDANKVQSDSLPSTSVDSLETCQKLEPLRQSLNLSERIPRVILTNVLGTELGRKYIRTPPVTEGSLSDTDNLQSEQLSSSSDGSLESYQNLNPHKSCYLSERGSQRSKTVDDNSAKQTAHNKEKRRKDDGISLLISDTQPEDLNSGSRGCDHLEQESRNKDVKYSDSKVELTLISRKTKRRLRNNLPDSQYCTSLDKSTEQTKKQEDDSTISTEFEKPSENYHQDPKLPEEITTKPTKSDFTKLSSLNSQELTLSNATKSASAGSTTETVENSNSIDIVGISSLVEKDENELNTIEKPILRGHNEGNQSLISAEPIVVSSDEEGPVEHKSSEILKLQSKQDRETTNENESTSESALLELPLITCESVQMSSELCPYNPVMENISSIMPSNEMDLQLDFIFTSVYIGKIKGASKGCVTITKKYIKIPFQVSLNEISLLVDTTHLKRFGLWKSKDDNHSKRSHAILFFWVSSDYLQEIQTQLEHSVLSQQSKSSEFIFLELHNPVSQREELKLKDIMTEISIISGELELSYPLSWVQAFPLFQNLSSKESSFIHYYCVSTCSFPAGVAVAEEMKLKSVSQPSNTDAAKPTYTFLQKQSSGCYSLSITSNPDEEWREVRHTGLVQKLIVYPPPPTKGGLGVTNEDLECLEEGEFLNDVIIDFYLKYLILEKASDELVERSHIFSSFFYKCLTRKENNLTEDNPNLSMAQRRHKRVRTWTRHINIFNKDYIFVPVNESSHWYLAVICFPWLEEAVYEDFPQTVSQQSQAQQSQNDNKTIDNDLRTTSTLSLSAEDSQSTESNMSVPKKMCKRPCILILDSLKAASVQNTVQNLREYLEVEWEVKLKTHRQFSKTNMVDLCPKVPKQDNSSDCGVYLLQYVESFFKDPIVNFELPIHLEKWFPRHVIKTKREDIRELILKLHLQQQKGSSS

CN(CCc1ccccn1)C(=S)Nc1cccc(S(=O)(=O)N(C)C)c1
EC50 [1]: 5.31 µM (active)

CCOC(=O)C1=NN(C(=O)c2ccc(C)cc2)C(O)(c2ccc(Cl)cc2)C1 (stereo not drawn)
EC50 [2]: 2.15 µM (active)
EC50 (Streptococcus): 8.19 µM (active)
EC50 (Streptokinase A): > 150 µM (not active)
EC50 [1]: 9.44 µM (active)

CN(C)C(CNC(=O)CCc1c[nH]c2ccccc12)c1ccccc1 (stereo not drawn)
EC50 [1]: 0.0747 µM (active)

Cc1ccc(O)c(C(=O)c2cc(C#N)c3nc4ccccc4n3c2)c1
IC50 (HEK293 [3]): > 20 µM (inactive)
EC50 (HEK293 [4]): 3.28 µM (active)
IC50 (HEK293 [5]): 10.2 µM (inactive)
IC50 (HEK293 [6]): 14.8 µM (active)
EC50 [7]: 17.5 µM (active)

CCN1CCN(c2c(S(=O)(=O)c3ccc(C)c(C)c3)cnc3ccc(F)cc23)CC1
EC50 [1]: 0.944 µM (active)

CCCCC(c1nnnn1CC1CCCO1)N1CCN(c2nc3ccccc3s2)CC1 (stereo not drawn)
EC50 [1]: 1.06 µM (active)

O=C(CSc1ncnc2ccccc12)c1cccs1
IC50 [8]: 17.5 µM (active)
IC50 (Caspase-3): 37.4 µM (active)
IC50 [9]: 23.9 µM (active)
IC50 [10]: 4.7 µM (active)

CCOC(=O)/C=C/c1ccc2oc3ccccc3c(=O)c2c1
IC50 [8]: 42.7 µM (active)
IC50 (Caspase-3): 12.2 µM (active)
IC50 [9]: 16.6 µM (active)
IC50 [10]: 3.46 µM (active)

COc1cc(NC(=O)c2cccc(Br)c2)nc(OC)n1
IC50 [8]: 35.7 µM (active)
IC50 (Caspase-3): 20.5 µM (active)
IC50 [9]: 31 µM (active)
IC50 [10]: 8.86 µM (active)

S=C(Nc1ccc(Oc2ccccc2)cc1)N1CCN(c2ccccn2)CC1
IC50 (HEK293 [3]): > 20 µM (inactive)
EC50 (HEK293 [4]): 9.44 µM (active)
IC50 (HEK293 [5]): 6.67 µM (active)
IC50 (HEK293 [6]): 5.27 µM (active)

CC(Sc1n[nH]c2c3ccccc3nc-2n1)C(=O)NC1CCCCC1 (stereo not drawn)
IC50 (HEK293 [3]): > 20 µM (inactive)
EC50 (HEK293 [4]): 4.88 µM (active)
IC50 (HEK293 [5]): 9.89 µM (active)
IC50 (HEK293 [6]): 11.1 µM (active)

From ChEMBL document CHEMBL1201862, “PubChem BioAssay data set” (2004)
